Measured values published in patent publication US20150315188A1, “COMPOUNDS AND METHODS FOR TREATMENT OF HYPERTENSION” (MEDIVATION TECHNOLOGIES, INC., priority 2012, published 2015).

Tests used:
Set-up in all cases: purchased Milipore (Millipore)
[1] = target: T1, Human adrenergic α2B receptor (Homo sapiens, UniProt P18089); assay: Radioligand binding, adrenergic α2B (Protocol Group B); conditions: Protocol Group B; for Percentage inhibition of ligand binding, Adrenergic α2B (30 nM) / inhibition at 0.03 µM: 30 nM compound; for Percentage inhibition of ligand binding, Adrenergic α2B (30 nM): 0.03 µM; for Percentage inhibition of ligand binding, Adrenergic α2B (10 nM): 0.01 µM; for inhibition at 0.03 µM: read-out: Percentage inhibition of ligand binding, Adrenergic α2B (30 nM)
T1 sequence (P18089 1-450): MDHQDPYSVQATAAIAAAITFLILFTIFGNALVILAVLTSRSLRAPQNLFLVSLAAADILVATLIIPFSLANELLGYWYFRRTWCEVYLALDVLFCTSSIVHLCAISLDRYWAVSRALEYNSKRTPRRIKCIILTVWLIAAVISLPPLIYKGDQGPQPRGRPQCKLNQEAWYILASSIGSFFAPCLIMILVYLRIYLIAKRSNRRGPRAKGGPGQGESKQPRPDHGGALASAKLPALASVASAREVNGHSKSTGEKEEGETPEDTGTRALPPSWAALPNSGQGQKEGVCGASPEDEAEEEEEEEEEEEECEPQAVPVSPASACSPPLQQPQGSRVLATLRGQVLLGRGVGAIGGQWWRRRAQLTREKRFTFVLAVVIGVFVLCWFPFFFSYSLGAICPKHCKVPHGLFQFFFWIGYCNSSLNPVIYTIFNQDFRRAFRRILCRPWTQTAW
Method in brief: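 Recombinant human α2B receptor membranes incubated with compounds in 50 mM Tris-HCl pH 7.4, 5 mM MgCl2, 1 mM CaCl2, 0.2% BSA, 1% DMSO vehicle. Non-specific binding defined with 10 μM rauwolscine. Values are percent inhibition of specific binding or estimated Ki.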

[2] = target: T2, Human adrenergic α2A receptor (Homo sapiens, UniProt P08913); assay: Radioligand binding, adrenergic α2A (Protocol Group B); conditions: Protocol Group B; for Percentage inhibition of ligand binding, Adrenergic α2A (0.3 μM): 0.3 μM compound
T2 sequence (P08913 1-465): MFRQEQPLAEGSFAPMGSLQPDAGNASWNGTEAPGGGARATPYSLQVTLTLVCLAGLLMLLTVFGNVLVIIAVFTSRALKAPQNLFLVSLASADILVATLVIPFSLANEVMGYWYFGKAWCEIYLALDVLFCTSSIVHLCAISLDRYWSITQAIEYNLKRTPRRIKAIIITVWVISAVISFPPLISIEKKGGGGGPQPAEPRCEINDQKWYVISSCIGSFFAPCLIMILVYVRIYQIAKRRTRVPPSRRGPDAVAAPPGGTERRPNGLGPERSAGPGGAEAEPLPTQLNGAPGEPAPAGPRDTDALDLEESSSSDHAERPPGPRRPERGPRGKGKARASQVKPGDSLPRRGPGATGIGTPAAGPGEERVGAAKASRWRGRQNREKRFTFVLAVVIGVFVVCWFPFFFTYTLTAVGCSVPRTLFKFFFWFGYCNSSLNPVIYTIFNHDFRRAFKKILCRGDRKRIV
Method in brief: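 Membranes from recombinant cells expressing the receptor, in 50 mM Tris-HCl pH 7.4 with 5 mM MgCl2, 1 mM CaCl2, 0.2% BSA; compounds incubated with 2 nM [^3H]MK-912 for 60 min at 25° C. Nonspecific binding defined by 10 μM rauwolscine; filtration, counting; percent inhibition of specific binding, or estimated Ki.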

[3] = target: T3, Human adrenergic α1B receptor (Homo sapiens, UniProt P35368); assay: Radioligand binding, adrenergic α1B (Protocol Group B); conditions: Protocol Group B; for inhibition at 0.3 µM / Percentage inhibition of ligand binding, Adrenergic α1B (0.3 μM): 0.3 μM compound; for inhibition at 0.3 µM: read-out: Percentage inhibition of ligand binding, Adrenergic α1B (0.3 μM)
T3 sequence (P35368 1-520): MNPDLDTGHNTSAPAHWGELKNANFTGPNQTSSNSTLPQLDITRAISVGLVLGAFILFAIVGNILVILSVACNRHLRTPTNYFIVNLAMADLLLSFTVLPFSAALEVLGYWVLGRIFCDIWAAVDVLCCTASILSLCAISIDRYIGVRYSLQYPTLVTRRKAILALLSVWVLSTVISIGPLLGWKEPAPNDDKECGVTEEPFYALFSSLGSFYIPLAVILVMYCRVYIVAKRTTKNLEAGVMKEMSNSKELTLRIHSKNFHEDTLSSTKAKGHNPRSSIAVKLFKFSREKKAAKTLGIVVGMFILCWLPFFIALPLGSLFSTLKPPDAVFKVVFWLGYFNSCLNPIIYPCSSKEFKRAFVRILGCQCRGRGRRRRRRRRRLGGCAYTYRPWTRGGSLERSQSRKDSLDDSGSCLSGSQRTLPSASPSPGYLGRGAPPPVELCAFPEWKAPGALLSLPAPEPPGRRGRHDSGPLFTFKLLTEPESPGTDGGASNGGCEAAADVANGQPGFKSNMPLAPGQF
Method in brief: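 Recombinant human α1B membranes incubated with test compound and 0.3 nM [3H]prazosin, 60 min at 25 °C, in 50 mM Tris-HCl pH 7.4, 10 mM MgCl2, 1 mM EDTA; nonspecific binding with 10 μM prazosin. Filter-bound radioactivity counted; values are % inhibition of specific binding or estimated Ki.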

| Structure (SMILES) | Percentage inhibition of ligand binding, Adrenergic α2B (30 nM) [1] [%] | Percentage inhibition of ligand binding, Adrenergic α2A (0.1 μM) ([2]; 0.1 μM compound) [%] | Percentage inhibition of ligand binding, Adrenergic α1B (0.1 μM) ([3]; 0.1 μM compound) [%] | other results |
| --- | --- | --- | --- | --- |
| Cc1ccc2c(c1)c1c(n2CC(C)(O)c2ccc(F)cc2)CN2CCC1C2 (single isomer, unassigned) [134d] | 22 | 15 | 28 | – |
| OC(Cn1c2c(c3cc(Cl)cc(F)c31)C1CCCN1CC2)c1ccncc1 (single isomer, unassigned) [135c] | – | 12 | 1 | Percentage inhibition of ligand binding, Adrenergic α2B (10 nM) ([1]; 10 nM compound): 4%; inhibition at 0.03 µM [1]: 10%; Percentage inhibition of ligand binding, Adrenergic α2A (0.3 μM) [2]: 18%; inhibition at 0.3 µM [3]: 12% |
| OC(Cn1c2c(c3cc(Cl)cc(F)c31)C1CCCN1CC2)c1ccncc1 (single isomer, unassigned) [135d] | 8 | 0 | −7 | Percentage inhibition of ligand binding, Adrenergic α2B (10 nM) ([1]; 10 nM compound): −1%; Percentage inhibition of ligand binding, Adrenergic α2A (0.3 μM) [2]: 2%; Percentage inhibition of ligand binding, Adrenergic α1B (0.3 μM) [3]: 9% |
| Cc1cc(F)cc2c3c(n(CC(O)c4ccncc4)c12)CCN1CCCC31 (single isomer, unassigned) [136c] | 9 | 3 | 0 | – |
| Cc1cc(F)cc2c3c(n(CC(O)c4ccncc4)c12)CCN1CCCC31 (single isomer, unassigned) [136d] | −8 | −12 | −2 | – |
| Cc1cc(F)c2c(c1)c1c(n2CC(O)c2ccncc2)CCN2CCCC12 (single isomer, unassigned) [137c] | 10 | – | – | inhibition at 0.01 µM ([1]; 10 nM compound, read-out: Percentage inhibition of ligand binding, Adrenergic α2B (10 nM)): 14%; inhibition at 0.1 µM ([2]; 0.1 μM compound, read-out: Percentage inhibition of ligand binding, Adrenergic α2A (0.1 μM)): 10%; Percentage inhibition of ligand binding, Adrenergic α2A (0.3 μM) [2]: 2%; inhibition at 0.1 µM ([3]; 0.1 μM compound, read-out: Percentage inhibition of ligand binding, Adrenergic α1B (0.1 μM)): 12%; inhibition at 0.3 µM [3]: 14% |
| Cc1cc(F)c2c(c1)c1c(n2CC(O)c2ccncc2)CCN2CCCC12 (single isomer, unassigned) [137d] | 24 | 15 | 19 | Percentage inhibition of ligand binding, Adrenergic α2B (10 nM) ([1]; 10 nM compound): 21%; Percentage inhibition of ligand binding, Adrenergic α2A (0.3 μM) [2]: 16%; Percentage inhibition of ligand binding, Adrenergic α1B (0.3 μM) [3]: 18% |
| Cc1ccc2c(c1)c1c(n2CC(OCC2CCC2)c2ccncc2)CCN2CCCC12 (single isomer, unassigned) [138c] | −9 | 0 | 4 | – |
| Cc1ccc2c(c1)c1c(n2CC(OCC2CCC2)c2ccncc2)CCN2CCCC12 (single isomer, unassigned) [138d] | 11 | 4 | 0 | – |
| CN1CCc2c(c3cc(CCO)ccc3n2CC(C)(O)c2cccnc2)C1 (single isomer, unassigned) [139a] | 31 | 7 | 9 | – |
| CN1CCc2c(c3cc(CCO)ccc3n2CC(C)(O)c2cccnc2)C1 (single isomer, unassigned) [139b] | 3 | 0 | 1 | – |
| CN1CCc2c(c3cc(CCO)ccc3n2CC(O)c2ccncc2)C1 (single isomer, unassigned) [140a] | −12 | −5 | −9 | – |
| CN1CCc2c(c3cc(CCO)ccc3n2CC(O)c2ccncc2)C1 (single isomer, unassigned) [140b] | 56 | −11 | −4 | – |
| Cc1cc(Cl)c2c(c1)c1c(n2CC(O)c2ccncc2)CCN2CCCC12 (single isomer, unassigned) [142a] | – | 52 | 46 | inhibition at 0.03 µM [1]: 92% |
| Cc1cc(Cl)c2c(c1)c1c(n2CC(O)c2ccncc2)CCN2CCCC12 (single isomer, unassigned) [142b] | 100 | 95 | 76 | – |
| OC(Cn1c2c(c3cc(Cl)ccc31)C1CCCN1CC2)c1ccncc1 (single isomer, unassigned) [143a] | 89 | 44 | 91 | – |
| OC(Cn1c2c(c3cc(Cl)ccc31)C1CCCN1CC2)c1ccncc1 (single isomer, unassigned) [143b] | 100 | 93 | 94 | – |
| OC(Cn1c2c(c3cc(Cl)ccc31)C1CCCN1CC2)c1ccncc1 (single isomer, unassigned) [143c] | 5 | 1 | 9 | – |
| OC(Cn1c2c(c3cc(Cl)ccc31)C1CCCN1CC2)c1ccncc1 (single isomer, unassigned) [143d] | 4 | 7 | 15 | – |
| OC(Cn1c2c(c3cc(F)cc(F)c31)C1CCCN1CC2)c1ccncc1 (single isomer, unassigned) [144a] | 73 | 16 | 28 | – |
| OC(Cn1c2c(c3cc(F)cc(F)c31)C1CCCN1CC2)c1ccncc1 (single isomer, unassigned) [144b] | 100 | 61 | 18 | – |
| OC(Cn1c2c(c3cc(F)cc(F)c31)C1CCCN1CC2)c1ccncc1 (single isomer, unassigned) [144c] | −12 | 1 | −2 | – |
